Assay results: BindingDB's records for doi:10.1016/0960-894X(96)00456-8 (1996)

Assay: Compound was evaluated for inhibitory activity against herpes simplex type 2 protease (HSV-2 pr).

| IC50 [nM] | Compound |
| --- | --- |
| 700 | O=C1OC(c2ccccc2)=N[C@@]12C[C@@H]2c1ccccc1 [(1R,3R)-1,5-Diphenyl-6-oxa-4-aza-spiro[2.4]hept-4-en-7-one] |
| 1200 | CC(=O)Oc1ccc([C@H]2C[C@@]23N=C(c2ccccc2)OC3=O)cc1 [Acetic acid 4-((1R,3R)-7-oxo-5-phenyl-6-oxa-4-aza-spiro[2.4]hept-4-en-1-yl)-phenyl ester] |
